These compounds were tested against α4β7 integrin (Homo sapiens (Human), UniProt P13612+P26010) (assay: α4β7 Integrin Cell Capture Assay). Settings: RPMI8866 cells captured on MadCAM-1 extracellular domain-coated plate.
Type: cell-based

Chain of α4β7 integrin (P13612 34-1032): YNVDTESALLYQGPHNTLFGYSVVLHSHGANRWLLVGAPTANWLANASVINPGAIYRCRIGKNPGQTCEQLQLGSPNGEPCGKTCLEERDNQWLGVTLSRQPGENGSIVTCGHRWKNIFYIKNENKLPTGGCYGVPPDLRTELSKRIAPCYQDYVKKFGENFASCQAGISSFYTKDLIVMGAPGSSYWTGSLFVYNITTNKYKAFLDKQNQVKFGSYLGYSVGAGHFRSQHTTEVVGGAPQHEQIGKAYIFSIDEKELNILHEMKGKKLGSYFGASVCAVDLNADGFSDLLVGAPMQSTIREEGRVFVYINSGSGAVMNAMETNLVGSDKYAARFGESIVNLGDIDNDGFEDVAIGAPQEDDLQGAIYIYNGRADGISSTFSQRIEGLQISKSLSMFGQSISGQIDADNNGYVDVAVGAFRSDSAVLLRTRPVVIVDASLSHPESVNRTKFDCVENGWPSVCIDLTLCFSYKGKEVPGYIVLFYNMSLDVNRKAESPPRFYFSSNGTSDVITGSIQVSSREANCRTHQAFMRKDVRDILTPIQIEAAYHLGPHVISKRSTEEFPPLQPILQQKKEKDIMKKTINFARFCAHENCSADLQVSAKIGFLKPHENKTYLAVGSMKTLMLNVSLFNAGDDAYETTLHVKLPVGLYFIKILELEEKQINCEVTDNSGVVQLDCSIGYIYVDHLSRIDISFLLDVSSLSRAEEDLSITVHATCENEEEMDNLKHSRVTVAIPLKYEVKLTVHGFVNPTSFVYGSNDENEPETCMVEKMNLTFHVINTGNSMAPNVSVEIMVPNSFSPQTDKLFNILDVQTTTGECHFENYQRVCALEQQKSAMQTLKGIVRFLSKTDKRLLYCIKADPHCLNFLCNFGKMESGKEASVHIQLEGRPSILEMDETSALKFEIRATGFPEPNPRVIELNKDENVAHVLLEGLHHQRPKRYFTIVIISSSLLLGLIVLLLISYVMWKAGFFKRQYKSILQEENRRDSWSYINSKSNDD
Chain of α4β7 integrin (P26010 20-798): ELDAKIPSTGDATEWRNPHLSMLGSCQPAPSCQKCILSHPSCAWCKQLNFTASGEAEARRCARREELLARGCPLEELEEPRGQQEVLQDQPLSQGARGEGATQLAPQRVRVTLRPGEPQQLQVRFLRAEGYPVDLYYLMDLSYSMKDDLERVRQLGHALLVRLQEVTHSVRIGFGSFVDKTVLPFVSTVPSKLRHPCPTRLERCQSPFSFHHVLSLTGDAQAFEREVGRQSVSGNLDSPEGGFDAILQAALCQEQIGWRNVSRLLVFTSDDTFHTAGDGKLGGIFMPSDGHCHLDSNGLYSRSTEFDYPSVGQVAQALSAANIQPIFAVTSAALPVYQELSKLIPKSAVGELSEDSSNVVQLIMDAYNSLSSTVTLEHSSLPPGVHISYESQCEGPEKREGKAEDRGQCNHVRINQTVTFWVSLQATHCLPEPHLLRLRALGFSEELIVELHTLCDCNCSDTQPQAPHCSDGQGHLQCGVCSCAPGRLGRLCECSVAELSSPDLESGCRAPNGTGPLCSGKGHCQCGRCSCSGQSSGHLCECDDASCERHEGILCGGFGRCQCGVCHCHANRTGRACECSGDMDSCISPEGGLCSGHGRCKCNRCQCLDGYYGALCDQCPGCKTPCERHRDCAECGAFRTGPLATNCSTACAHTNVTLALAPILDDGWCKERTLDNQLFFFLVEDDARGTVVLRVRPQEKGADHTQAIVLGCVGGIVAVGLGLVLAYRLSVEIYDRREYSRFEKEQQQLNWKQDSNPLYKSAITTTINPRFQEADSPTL

EC50 [nM] | Structure (SMILES)
0.189 | Cc1cc(C(F)(F)F)c(-c2ccc(C[C@H](NC(=O)c3c(F)cc(N4CCO[C@@H](C)[C@@H]4C(F)(F)F)cc3F)C(=O)O)c3cccnc23)c(=O)n1C [Example 468]
0.714 | Cc1cc(N2CCOC[C@@H]2C(F)(F)F)cc(F)c1C(=O)N[C@@H](Cc1ccc(-c2nc(C)c(C)c(C)n2)c2ncccc12)C(=O)O [Example 443]
0.096 | Cc1cc(N2CCOC[C@@H]2C(F)(F)F)cc(F)c1C(=O)N[C@@H](Cc1ccc(-n2c(=O)c3ccncc3n(C)c2=O)c2ncc(F)cc12)C(=O)O [Example 426]
0.049 | CC[C@@H](Nc1cc(C)c(C(=O)N[C@@H](Cc2ccc(-n3c(=O)c4ccncc4n(C)c3=O)c3ncccc23)C(=O)O)c(F)c1)C(F)(F)F [Example 439]
0.318 | Cc1cc(N2CCOC[C@@H]2C(F)(F)F)cc(C)c1C(=O)N[C@@H](Cc1ccc(-c2c(C(F)(F)F)cc(C)n(C)c2=O)c2ncccc12)C(=O)O [Example 446]
0.162 | Cc1cc(N2CCOC[C@@H]2C(F)(F)F)cc(F)c1C(=O)N[C@@H](Cc1ccc(-n2c(=O)c3ccncc3n(C)c2=O)c2ncccc12)C(=O)O (single isomer, unassigned) [Example 407]
0.076 | Cc1cc(N2CCOC[C@@H]2C(F)(F)F)cc(F)c1C(=O)N[C@@H](Cc1cc(F)c(-n2c(=O)c3ccncc3n(C)c2=O)c2ncccc12)C(=O)O [Example 433]
0.103 | Cc1cc(N2CCOC[C@@H]2C(F)(F)F)cc(F)c1C(=O)N[C@@H](Cc1ccc(-c2cc3cnccc3n(C)c2=O)c2ncccc12)C(=O)O [Example 469]

Same assay, conditions: Table 1; capture of α4β7 expressing RPM18866 cells on MadCAM-1 extracellular domain-coated plate

EC50 [nM] | Structure (SMILES)
1 | CC[C@@H](Nc1cc(F)c(C(=O)N[C@@H](Cc2ccc(-n3c(=O)c4cc(N(C)C)ccc4n(C)c3=O)c3ncccc23)C(=O)O)c(F)c1)C(F)(F)F [Example 108, (S)-2-(2,6-difluoro-4-(((R)-1,1,1-trifluorobutan-2-yl)amino)benzamido)-3-(8-(6-(dimethylamino)-1-methyl-2,4-dioxo-1,4-dihydroquinazolin-3(2H)-yl)quinolin-5-yl)propanoic acid]
60.6 | N#Cc1ccc(-c2ccc(C[C@H](NC(=O)c3c(F)cc(N[C@@H](C4CC4)C(F)(F)F)cc3F)C(=O)O)c3cccnc23)c(Cl)c1 [Example 148]
0.2 | Cc1cc(C(F)(F)F)c(-c2ccc(C[C@H](NC(=O)c3c(F)cc(N4C[C@@H](C)OC[C@@H]4C(F)(F)F)cc3F)C(=O)O)c3cccnc23)c(=O)n1C [Example 136, (S)-2-(2,6-difluoro-4-((2R,5R)-2-methyl-5-(trifluoromethyl)morpholino)benzamido)-3-(8-(1,6-dimethyl-2-oxo-4-(trifluoromethyl)-1,2-dihydropyridin-3-yl)quinolin-5-yl)propanoic acid]
0.7 | Cc1cc(C(F)(F)F)c(-c2ccc(C[C@H](NC(=O)c3c(F)cc(N4CCCC[C@@H]4C(F)(F)F)cc3F)C(=O)O)c3cccnc23)c(=O)n1C [Example 129, (S)-2-(2,6-difluoro-4-((R)-2-(trifluoromethyl)piperidin-1-yl)benzamido)-3-(8-(1,6-dimethyl-2-oxo-4-(trifluoromethyl)-1,2-dihydropyridin-3-yl)quinolin-5-yl)propanoic acid]
0.8 | Cc1cc(C(F)(F)F)c(-c2ccc(C[C@H](NC(=O)c3c(F)cc(N4CCOC[C@@H]4CC(F)(F)F)cc3F)C(=O)O)c3cccnc23)c(=O)n1C [Example 131, (S)-2-(2,6-difluoro-4-((S)-3-(2,2,2-trifluoroethyl)morpholino)benzamido)-3-(8-(1,6-dimethyl-2-oxo-4-(trifluoromethyl)-1,2-dihydropyridin-3-yl)quinolin-5-yl)propanoic acid]
12.8 | C[C@@H](NC(=O)c1cc(F)c(C(=O)N[C@@H](Cc2ccc(-c3ccc(C#N)cc3Cl)c3ncccc23)C(=O)O)c(F)c1)c1ccccc1 [Example 27, (S)-3-(8-(2-chloro-4-cyanophenyl)quinolin-5-yl)-2-(2,6-difluoro-4-(((R)-1-phenylethyl)carbamoyl)benzamido)propanoic acid]
0.2 | CC[C@@H](Nc1cc(F)c(C(=O)N[C@@H](Cc2ccc(-c3c(C(F)(F)F)cc(C)n(C)c3=O)c3ncccc23)C(=O)O)c(Cl)c1)C(F)(F)F [Example 144, (S)-2-(2-chloro-6-fluoro-4-(((R)-1,1,1-trifluorobutan-2-yl)amino)benzamido)-3-(8-(1,6-dimethyl-2-oxo-4-(trifluoromethyl)-1,2-dihydropyridin-3-yl)quinolin-5-yl)propanoic acid]
8.6 | CCOCc1cc(OC)c(-c2c(F)cc(C[C@H](NC(=O)c3c(F)cccc3F)C(=O)O)c3cccnc23)c(OC)c1 [Example 40, (S)-2-(2,6-difluorobenzamido)-3-(8-(4-(ethoxymethyl)-2,6-dimethoxyphenyl)-7-fluoroquinolin-5-yl)propanoic acid]
81.6 | CCOCc1cc(OC)c(-c2cc(F)c(C[C@H](NC(=O)c3c(F)cccc3F)C(=O)O)c3cccnc23)c(OC)c1 [Example 39, (S)-2-(2,6-difluorobenzamido)-3-(8-(4-(ethoxymethyl)-2,6-dimethoxyphenyl)-6-fluoroquinolin-5-yl)propanoic acid]
8.4 | O=C(N[C@@H](Cc1ccc(-c2ccccc2C(F)(F)F)c2ncccc12)C(=O)O)c1c(F)cc(NS(=O)(=O)c2ccc(-c3ccnc(F)c3)cc2)cc1F [Example 65, (S)-2-(2,6-difluoro-4-((4-(2-fluoropyridin-4-yl)phenyl)sulfonamido)benzamido)-3-(8-(2-(trifluoromethyl)phenyl)quinolin-5-yl)propanoic acid]
0.6 | CC[C@@H](N1CCCc2c1cc(F)c(C(=O)N[C@@H](Cc1ccc(-c3c(C(F)(F)F)cc(C)n(C)c3=O)c3ncccc13)C(=O)O)c2F)C(F)(F)F [Example 146, (S)-2-(5,7-difluoro-1-((R)-1,1,1-trifluorobutan-2-yl)-1,2,3,4-tetrahydroquinoline-6-carboxamido)-3-(8-(1,6-dimethyl-2-oxo-4-(trifluoromethyl)-1,2-dihydropyridin-3-yl)quinolin-5-yl)propanoic acid]

Structure (SMILES) | EC50 [nM]
N#Cc1ccccc1-c1ccc(C[C@H](NC(=O)c2c(F)cc(NS(=O)(=O)c3ccc(-c4ccnc(F)c4)cc3)cc2F)C(=O)O)c2cccnc12 [Example 59, (S)-3-(8-(2-cyanophenyl)quinolin-5-yl)-2-(2,6-difluoro-4-((4-(2-fluoropyridin-4-yl)phenyl)sulfonamido)benzamido)propanoic acid] | 3.2
CC(C)(O)C#Cc1cc(Cl)c(C(=O)N[C@@H](Cc2ccc(-c3ccc(C#N)cc3Cl)c3ncccc23)C(=O)O)c(Cl)c1 [Example 29, (S)-3-(8-(2-chloro-4-cyanophenyl)quinolin-5-yl)-2-(2,6-dichloro-4-(3-hydroxy-3-methylbut-1-yn-1-yl)benzamido)propanoic acid] | 68.7

Same assay, conditions: Table 2; capture of α4β7 expressing RPM18866 cells on MadCAM-1 extracellular domain-coated plate

EC50 [nM] | Structure (SMILES)
18.8 | CC[C@@H](Nc1cc(F)c(C(=O)N[C@@H](Cc2ccc(-c3nccc(C)c3Cl)c3ncccc23)C(=O)O)c(F)c1)C(F)(F)F [Example 325]
1.8 | CC[C@@H](Nc1cc(F)c(C(=O)N[C@@H](Cc2ccc(-c3nc(N)ccc3C(F)(F)F)c3ncccc23)C(=O)O)c(F)c1)C(F)(F)F [Example 208]
14.4 | O=C(N[C@@H](Cc1ccc(-c2ncc3ccc(C4CC4)cc3c2C(F)(F)F)c2ncccc12)C(=O)O)c1c(Cl)cccc1Cl [Example 319]
4.9 | CC[C@@H](Nc1cc(F)c(C(=O)N[C@@H](Cc2ccc(-c3ncc4ccccc4c3C(F)(F)F)c3ncccc23)C(=O)O)c(F)c1)C(F)(F)F [Example 276]
3.7 | Cc1c(N(C)C)cc(-c2ccc(C[C@H](NC(=O)c3c(F)cc(N4CCOC[C@@H]4C(F)(F)F)cc3F)C(=O)O)c3cccnc23)c(=O)n1C [Example 259]
2.1 | CCOCc1cc(OC)c(-c2ccc(C[C@H](NC(=O)c3c(Cl)cc4cc[nH]c4c3Cl)C(=O)O)c3cccnc23)c(OC)c1 [Example 219]
12.3 | CC[C@@H](Nc1cc(F)c(C(=O)N[C@@H](Cc2ccc(-c3ncc(C)cc3C(F)(F)F)c3ncccc23)C(=O)O)c(F)c1)C(F)(F)F [Example 310]
7.7 | CC[C@@H](Nc1cc(F)c(C(=O)N[C@@H](Cc2ccc(-c3cn(C)c(=O)cc3C(F)(F)F)c3ncccc23)C(=O)O)c(F)c1)C(F)(F)F [Example 296]
1.9 | Cc1ccnc(-c2ccc(C[C@H](NC(=O)c3c(F)cc(N4CCOC[C@@H]4C(F)(F)F)cc3F)C(=O)O)c3cccnc23)c1N(C)C [Example 212]
0.7 | CC[C@@H](Nc1cc(F)c(C(=O)N[C@@H](Cc2ccc(-c3c(Cl)cc(C)n(C)c3=O)c3ncccc23)C(=O)O)c(F)c1)C(F)(F)F [Example 343]
0.5 | CC[C@@H](N(c1cc(F)c(C(=O)N[C@@H](Cc2ccc(-c3c(C(F)(F)F)cc(C)n(C)c3=O)c3ncccc23)C(=O)O)c(F)c1)C1CC1)C(F)(F)F [Example 172]
10.2 | CC[C@@H](Nc1cc(F)c(C(=O)N[C@@H](Cc2ccc(-c3ncccc3C(C)C)c3ncccc23)C(=O)O)c(F)c1)C(F)(F)F [Example 305]
5.7 | CC[C@@H](Nc1cc(F)c(C(=O)N[C@@H](Cc2ccc(-c3c(C)c(N(C)C)cn(C)c3=O)c3ncccc23)C(=O)O)c(F)c1)C(F)(F)F [Example 287]
0.7 | Cc1cc(C(F)(F)F)c(-c2ccc(C[C@H](NC(=O)c3c(F)cc(N4CCO[C@@H](C)C4)cc3F)C(=O)O)c3cccnc23)c(=O)n1C [Example 181]
13.6 | CC[C@@H](Nc1cc(F)c(C(=O)N[C@@H](Cc2ccc(-c3ncccc3N(C)C)c3ncccc23)C(=O)O)c(F)c1)C(F)(F)F [Example 315]
97.1 | N#Cc1ccc(-c2ccc(C[C@H](NC(=O)c3c(F)cc(O[C@H](c4ccccc4)C(F)(F)F)cc3F)C(=O)O)c3cccnc23)c(Cl)c1 [Example 175]
0.9 | Cn1cc(-c2ccc(C[C@H](NC(=O)c3c(F)cc(N[C@H](c4ccc(Cl)cc4)C(F)(F)F)cc3F)C(=O)O)c3cccnc23)c(=O)n(C)c1=O [Example 232]
1.5 | CC[C@@H](Nc1cc(F)c(C(=O)N[C@@H](Cc2ccc(-c3c(C)c(F)cn(C)c3=O)c3ncccc23)C(=O)O)c(F)c1)C(F)(F)F [Example 199]

Source: patent US11116760B2 (Gilead Sciences, Inc., priority 2018, dated 2021)
